This note sets out measurements from US20140275090A1, “BILE ACID RECYCLING INHIBITORS FOR TREATMENT OF PRIMARY SCLEROSING CHOLANGITIS AND INFLAMMATORY BOWEL DISEASE” (Lumena Pharmaceuticals, Inc., priority 2013, published 2014).

For assay [1], the system named is serum bile acids. The assay can be described thus: Time to onset of activity of LUM001 on postprandial serum total bile acids (SBA) in beagle dogs. It counts as in vivo. To be noted: dog SBA model, oral, 1 hour after feeding. The protocol:
LUM001 was dissolved in water at concentrations that required the administration of 0.2 ml/kg of solution. Solutions were placed into gelatin capsules, Torpac Inc., size 13 Batch 594, East Hanover N.J., and administered orally.
Male beagle dogs were obtained from Covance Research Products, Cumberland Va. or Marshall Farms USA, Inc., North Rose N.Y. A total of 20 dogs, 1 to 5 years old, 6.8 to 15.6 kg body weight, were used in these experiments. The dogs were conditioned to a 12 hour light/dark cycle and maintained on a feeding restriction of 1 hour per day access to food (Richman Standard Certified Canine Diet #5007, PMI Nutrition, Inc., St. Louis Mo.) from 7 to 8 AM. They were trained to eat a special meal promptly within 20 minutes when presented (1 can. 397 g, Evanger's 100% Beef for Dogs, Evanger's Dog and Cat Food Co., Inc., Wheeling Ill., mixed with 50 g of sharp cheddar cheese.).
SBA was measured by an enzymatic assay. SBA values are expressed as […] of total bile acids/ml of serum.
To estimate the details of this plateau, 6 dogs were given a test meal and blood samples for SBA measurement were collected at −30, 0, 30, 60, 65, 70, 80, 90, 120, 180, 240, 360, 480, 720, 1410 and 1440 minutes from the time of feeding. Any remaining food was removed 20 min after it was first presented to the dogs. […]

Assay [2] deals with fecal bile acids. The assay is described as follows: Fecal bile acid measurement, rats dosed 4 days. To be noted: for Increase over Vehicle (Delta): fecal bile acids, rat, 4 days. In kind it is in vivo, Wistar rat. The protocol:
Male Wistar rats (Charles River Laboratories) weighing 275-300 grams were single-housed in a constant temperature environment with alternating 12 hour light and dark cycles. All animals had continuous access to a commercial rodent diet as well as water. In each study rats were randomly assigned to either vehicle or treatment groups and were administered intragastric doses of drug dissolved in aqueous 0.2% (v/v) Tween 80 (2 ml/kg body weight). The animals were dosed in the morning between 9:00 and 10:00 a.m. for four consecutive days. Fecal samples were collected on papers underneath each cage during the final 48 hour period of the study and analyzed for bile acid content.
Cage papers containing the 48-hour fecal samples were collected at approximately 9:00 a.m. on the final day and used to determine the individual fecal bile acid (FBA) concentration for each animal. Fecal samples from each rat were weighed and a weight of distilled water (1 gram/mL) equal to 2 times the total weight of feces was added to each sample container (e.g., 20 mL water to 10 grams feces). The containers were stored overnight at 4° C. Each sample was homogenized for approximately 45 seconds using a small food processor to yield a homogeneous slurry. 1.4 grams of the homogenate was weighed into 16×100 polypropylene tubes and 2.6 mL of tertiary butanol/distilled water (2:0.6) added to yield a final concentration of 50% (v/v) tertiary butanol in water. The sample was extracted by incubation for 45 minutes in a 37° C. water bath, and subjected to centrifugation at 3000×g for 13 minutes and the supernatant extract collected.
The concentration of bile acids […] in the extract was determined using a 96-well enzymatic assay system (4,5). 20 μl aliquots of each butanol extract was added to two sets of triplicate wells in a 96-well assay plate (one set on each half of the plate). Standardized sodium taurocholate solutions (0.2 and 0.9 mM) and standardized fecal extract solutions (previously made from pooled fecal samples collected from control and drug-treated rats) were analyzed in parallel to provide a bile acid standard curve and internal quality control samples, respectively. 20 μl aliquots of the sodium taurocholate standard were serially diluted to generate a standard curve and were added to two separate sets of triplicate wells.
To each well, 230 μl of reaction mixture containing 1M hydrazine hydrate, 0.1 M pyrophosphate and 0.46 mg/ml NAD was added. […] Following a 60 minute incubation at room temperature, the optical density at 340 nm was measured and the mean of each set of triplicate wells was calculated. […] A mean value for the increase in FBA for each group was determined and compared to the vehicle group used, to determine compound dosing efficacy. […]

For `CCCCC1(CCCC)CS(=O)(=O)c2ccc(N(C)C)cc2[C@@H](c2ccc(OCc3ccc(C[N+]45CCN(CC4)CC5)cc3)cc2)[C@H]1O` [LUM001], the threshold dose in assay [1] came out at 0.05 mg/kg. Besides, the “Increase over Vehicle (Delta)” value in assay [2] (Q.D. 0.002 mg/kg/day) stood at 4.1; in assay [2] (Q.D. 0.008 mg/kg/day), 5.9; in assay [2] (Q.D. 0.4 mg/kg/day) it was 47.0. In addition, the “effect on fecal bile acids” value in assay [2] (rats, all doses) is reported as “significantly increased”.
